Test results: US4933497A, “Preparation of hydroxybenzaldehydes by hydrocarbonylation of halophenols” (Rhone-Poulenc Chimie, priority 1988, dated 1990)

What was measured:
[1] = water
[2] = in water (generally at 25° C.); cited from earlier work
[3] = in water; cited from earlier work

Compound | pKa of the halophenol [1] | pKa of the phosphine [3] | other results
Oc1ccccc1Br [2-bromophenol] | 8.55 | – | –
CCOc1cc(Br)ccc1O [4-bromo-2-ethoxyphenol] | ~9.5 | – | –
COc1cc(Br)ccc1O [4-bromo-2-methoxyphenol] | 9.5 | – | –
CN(C)c1ccncc1 [4-dimethylaminopyridine] | – | – | pKa of the conjugate acid of the amine [2]: 9.55
c1ccc(CP(Cc2ccccc2)Cc2ccccc2)cc1 [tribenzylphosphine] | – | 6.0 | –
C1CCC(P(C2CCCCC2)C2CCCCC2)CC1 [tricyclohexylphosphine] | – | 9.7 | –
CCP(CC)CC [triethylphosphine] | – | 8.69 | –
c1ccc(P(c2ccccc2)c2ccccc2)cc1 [triphenylphosphine, reference compound] | – | 2.74 | –
